The text below walks through data of US20050042674A9, “Common ligand mimics: thiazolidinediones and rhodanines” (priority 2002, published 2005).

Test [1] concerns the target dihydrodipicolinate reductase (DHPR) (Escherichia coli, UniProt P04036). The experiment in a line: DHPR kinetic assay, spectrophotometric oxidation of NADPH at 340 nm. In kind it is biochemical. As to conditions: Cibacron Blue at 2.58 μM; read-out: inhibition of DHPR, positive control. The protocol: DHPR was diluted in 10 mM HEPES at a pH of 7.4. DHPS (dihydrodipicolinate synthase) was not diluted and was stored in eppindorf tubes.
The L-ASA (L-aspartate semialdehyde) solution was prepared in the following manner. […] stock solution of ASA was prepared. 100 μl of the ASA stock solution was mixed with 150 μl of concentrated NaHCO3 and 375 μl of H2O. For use in the assay, 28.8 mM L-ASA was equal to 625 μl of the solution. The L-ASA stock solution was kept at a temperature of −20° C. After dilution, the pH of the 28.8 mM solution was checked and maintained between 1 and 2.
(§1) The solution for background detection was a 945 μl solution containing 0.1 HEPES (pH 7.8), 1 mM pyruvate, 6 μM NADPH, 40 μM L-ASA, and 7 μl of 1 mg/ml DHPS at 25° C. in the volumes provided above. The sample solution was then mixed and incubated for 10 minutes. Next, 500 nM solutions of the inhibitors and enough DMSO to provide a final DMSO concentration of 5% of the total assay volume were added. The solution was mixed and incubated for an additional 6 minutes.
In DHPR samples, 5 μl of the diluted DHPR enzyme were added. The sample was mixed for 20 seconds and then the reaction was run for 10 minutes. […] Reading of the samples was continued until 300 seconds. […] The substrate was kept at a level at least 10 times the Km. The final concentration of L-ASA was about 1 mM.

For test [2], the target named is T1, lactate dehydrogenase (LDH) (Oryctolagus cuniculus, UniProt P13491).
T1 construct: LDH from Rabbit Muscle; from tissue; host or cells: rabbit muscle
The experiment in a line: LDH kinetic assay, spectrophotometric oxidation of NADH at 340 nm. Type of test: biochemical, Rabbit. As to conditions: Cibacron Blue at 10.3 μM; read-out: inhibition of LDH, positive control. The method, then:
Solutions of 100 μl of the inhibitors in DMSO were prepared to provide a final DMSO concentration of 5% of the total assay volume. […] The reaction was then initiated with 10 μl of LDH from Rabbit Muscle (0.5 μ/ml; 1:2000 dilution of 1.0 mg/ml). […] Reading of the samples was continued until 300 seconds. […] The substrate was kept at a level at least 10 times the Km.

Test [3] concerns the target 1-deoxy-D-xylulose-5-phosphate reductase (DOXPR) (Escherichia coli, UniProt P45568). The experiment in a line: DOXPR kinetic assay, spectrophotometric oxidation of NADPH at 340 nm. In kind it is biochemical. As to conditions: Cibacron Blue at 10.32 μM; read-out: inhibition of DOXPR, positive control. The method, then: DOXPR was diluted in 10 mM HEPES at a pH of 7.4.
Solutions of the inhibitors in DMSO were prepared to provide a final DMSO concentration of 5% of the total assay volume. […] The oxidation reaction was then initiated with 10 μl of DOXP reductoisomerase (10 μg/ml). […] Reading of the samples was continued until 300 seconds. […] The substrate was kept at a level at least 10 times the Km.

For a further test, the target named is E. coli DHPR (Escherichia coli, UniProt P04036). The experiment in a line: Screening of bi-ligands on DHPR, kinetic oxidation of NADPH (Example 38). As to conditions: Cibacron Blue at 2.58 μM, read-out: inhibition of DHPR, positive control. In kind it is biochemical. The method, then:
Bi-ligands were produced by the methods of Examples 14 to 18. The bi-ligands were screened for binding to E. coli DHPR. The bi-ligands were screened using a kinetic protocol that spectrophotometrically evaluates oxidation of NADPH.
Dilution of DHPR was prepared in 10 mM HEPES at a pH of 7.4. DHPS was not diluted and was stored in eppindorf tubes.
The L-ASA solution was prepared in the following manner. […] stock solution of ASA was prepared. 100 μl of the ASA stock was mixed with 150 μl of concentrated NaHCO3 and 375 μl of H2O. For use in the assay, 28.8 mM L-ASA equal 625 μl of the solution. The L-ASA stock solution was kept at a temperature of −20° C. After dilution, the pH of the 28.8 mM solution was checked and maintained between 1 and 2.
as §1
In DHPR samples, 5 μl of the diluted DHPR enzyme were added. […] Reading of the samples was continued until 300 seconds. […]

1-deoxy-D-xylulose-5-phosphate reductase (DOXPR), sequence (P45568 whole entry): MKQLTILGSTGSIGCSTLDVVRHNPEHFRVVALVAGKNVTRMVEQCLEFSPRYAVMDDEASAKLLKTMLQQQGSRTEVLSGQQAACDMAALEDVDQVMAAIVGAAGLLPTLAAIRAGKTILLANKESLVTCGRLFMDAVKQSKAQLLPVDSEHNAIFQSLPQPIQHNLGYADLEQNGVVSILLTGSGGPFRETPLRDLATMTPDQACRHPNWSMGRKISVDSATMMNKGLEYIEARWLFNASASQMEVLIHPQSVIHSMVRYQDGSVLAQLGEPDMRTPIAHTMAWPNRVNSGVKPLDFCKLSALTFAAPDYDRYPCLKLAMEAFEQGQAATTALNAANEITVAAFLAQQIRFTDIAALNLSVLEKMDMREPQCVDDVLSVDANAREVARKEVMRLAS
E. coli DHPR, sequence (P04036 whole entry): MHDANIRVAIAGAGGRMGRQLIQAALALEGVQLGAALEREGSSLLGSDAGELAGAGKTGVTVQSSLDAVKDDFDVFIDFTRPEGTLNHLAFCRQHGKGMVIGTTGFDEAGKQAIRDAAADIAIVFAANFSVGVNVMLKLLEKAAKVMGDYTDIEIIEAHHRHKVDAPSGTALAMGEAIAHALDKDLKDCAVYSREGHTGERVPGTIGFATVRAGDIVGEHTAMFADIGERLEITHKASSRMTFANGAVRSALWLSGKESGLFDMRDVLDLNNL
dihydrodipicolinate reductase (DHPR), sequence (P04036 whole entry): as above

In the case of `Nc1c(S(=O)(=O)O)cc(Nc2ccc(Nc3nc(Cl)nc(Nc4ccccc4S(=O)(=O)O)n3)c(S(=O)(=O)O)c2)c2c1C(=O)c1ccccc1C2=O` [Cibacron Blue, reference compound], the inhibition at 2.58 µM (in test [1]; at E. coli DHPR) was 70 to 80% throughout. Also, the inhibition (commonly the change of the read-out against control, counted positive when it falls) at 10.3 µM in test [2] was in the range of 50 to 70%. Further, the inhibition at 10.32 µM in test [3] lay in the range of 70 to 80%.
